This note sets out measurements from patent publication US9486506B2 (Novo Nordisk A/S, priority 2011, dated 2016).

Numbered stars: 1 amine (or outer) side, 2 acyl side, 3 side chain; on linkers, the order of the positions; unused ones are H or OH. Side chains are listed from the residue outwards. Peptide text beside a SMILES is read from it. * marks the point of attachment. C18 diacid = O=C(O)CCCCCCCCCCCCCCCCC(=O)*; γGlu = O=C(O)[C@H](CCC(=O)[*:2])N[*:1]; AEEA = NCCOCCOCC(=O)O

For one data set, the target named is T1, glucagon receptor (Homo sapiens, UniProt P47871).
T1 construct: expressed in transfected cells
The experiment in a line: Assay (I) Glucagon activity (cAMP biosensor, FLIPR). It is filed as cell-based.

A short description of data set [1]: Assay (X) Chemical stability assessment by RP-UPLC. The note with it: pH 8.15, 14 days at 37° C. vs 5° C., 333 μM. The data set is classed as physicochemical. As to the method:
Chemical Stability Assessment
Lyophilized samples were dissolved in buffer (see below for detailed compositions) to a final concentration of 333 μM and a pH of 8.15, and were incubated for 14 days at 5° C. and 37° C. followed by RP-UPLC analysis. Purity was defined as the area percentage of the main peak in relation to the total area of all integrated peaks in each chromatogram. Purity loss after 14 days at 37° C. was determined as the difference in purity between the samples incubated at 5° C. and 37° C., divided by the purity of the sample after incubation for 14 days at 5° C.
RP-UPLC analysis was performed using a Waters BEH130 2.1 mm×150 mm, 1.7 μm column operated at 50° C. and a flow rate of 0.4 mL/min using a mobile phase system consisting of typically A: 50 mM Phosphate, 10 w/w % Acetonitrile pH 3 and B: 80 v/v Acetonitrile. UV-detection was performed at 215 nm. The typical gradient profile used for most of the samples is shown below.
For some individual analogues eluting at substantially different retention times compared with the majority of analogues, some adjustments to the gradient profile were made to better enable purity assessment comparison across samples. Also the composition of the channel B mobile phase component was in some of the analyses exchanged for a 90 v/v % Acetonitrile solvent solution in an attempt to better handle carry-over of material from one injection to the next in the sequence. This was however compensated for by recalculating the gradient profile appropriately.
Buffer: • 50 mM Dinatriumphosphatdihydrat • 184 mM Propylenglycol • 58 mM Phenol • pH adjusted to 8.15 with H3PO4. In cases where pH was adjusted to 8.15 after re-suspension of analogues, 0.2 M NaOH was used. Assay (XI) Pharmacokinetic Study in Minipigs

T1 sequence (P47871 26-477): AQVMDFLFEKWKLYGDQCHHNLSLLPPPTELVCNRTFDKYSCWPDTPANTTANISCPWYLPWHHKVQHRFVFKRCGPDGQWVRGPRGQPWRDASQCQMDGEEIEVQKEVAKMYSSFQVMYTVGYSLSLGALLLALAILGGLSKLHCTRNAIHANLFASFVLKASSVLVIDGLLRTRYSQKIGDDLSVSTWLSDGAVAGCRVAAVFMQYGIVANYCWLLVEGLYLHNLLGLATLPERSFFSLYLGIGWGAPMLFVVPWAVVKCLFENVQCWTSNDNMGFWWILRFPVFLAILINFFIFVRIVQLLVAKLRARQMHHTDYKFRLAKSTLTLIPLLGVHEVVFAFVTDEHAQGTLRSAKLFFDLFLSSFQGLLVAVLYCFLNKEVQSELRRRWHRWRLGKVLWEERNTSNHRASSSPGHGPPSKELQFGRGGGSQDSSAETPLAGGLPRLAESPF

With `CC(C)C[C@H](NC(=O)[C@H](Cc1ccc(O)cc1)NC(=O)[C@H](CCCCN)NC(=O)[C@H](CO)NC(=O)[C@H](Cc1ccc(O)cc1)NC(=O)[C@H](CC(=O)O)NC(=O)[C@H](CO)NC(=O)[C@@H](NC(=O)[C@H](Cc1ccccc1)NC(=O)[C@@H](NC(=O)CNC(=O)[C@H](CCC(N)=O)NC(=O)[C@H](CO)NC(=O)[C@@H](N)Cc1c[nH]cn1)[C@@H](C)O)[C@@H](C)O)C(=O)N[C@@H](CC(=O)O)C(=O)N[C@@H](C)C(=O)N[C@@H](CCCNC(=N)N)C(=O)N[C@@H](CCCNC(=N)N)C(=O)N[C@@H](C)C(=O)N[C@@H](CCC(N)=O)C(=O)N[C@@H](CC(=O)O)C(=O)N[C@@H](Cc1ccccc1)C(=O)N[C@H](C(=O)N[C@@H](CCCCNC(=O)CC[C@H](NC(=O)CC[C@H](NC(=O)COCCOCCNC(=O)COCCOCCNC(=O)CC[C@H](NC(=O)CCCCCCCCCCCCCCCCC(=O)O)C(=O)O)C(=O)O)C(=O)O)C(=O)N[C@@H](Cc1c[nH]c2ccccc12)C(=O)N[C@@H](CC(C)C)C(=O)N[C@@H](CC(C)C)C(=O)N[C@@H](CCC(N)=O)C(=O)N[C@H](C(=O)O)[C@@H](C)O)C(C)C` [Example 56, N^ε24-[(4S)-4-carboxy-4-[[(4S)-4-carboxy-4-[[2-[2-[2-[[2-[2-[2-[[(4S)-4-carboxy-4-(17-carboxyheptadecanoylamino)butanoyl]amino]ethoxy]ethoxy]acetyl]amino]ethoxy]ethoxy]acetyl]amino]butanoyl]amino]butanoyl]-[Ala16,Lys24,Leu27,Gln28]-Glucagon], on glucagon receptor, it took 192 pM to reach a half-maximal effect (EC50). In data set [1], the “Chemical stability [Purity loss/14 days 37 C.]” value was 8.1%.

Molecule `CC(C)C[C@H](NC(=O)[C@H](Cc1c[nH]c2ccccc12)NC(=O)[C@H](CCCCNC(=O)CC[C@H](NC(=O)COCCOCCNC(=O)COCCOCCNC(=O)CC[C@H](NC(=O)CC[C@H](NC(=O)CCCCCCCCCCCCCCCCC(=O)O)C(=O)O)C(=O)O)C(=O)O)NC(=O)[C@@H](NC(=O)[C@H](Cc1ccccc1)NC(=O)[C@H](CCC(=O)O)NC(=O)[C@H](CCC(N)=O)NC(=O)[C@H](C)NC(=O)[C@H](CCCNC(=N)N)NC(=O)[C@H](CCCNC(=N)N)NC(=O)[C@@H](NC(=O)[C@H](CC(=O)O)NC(=O)[C@H](CC(C)C)NC(=O)[C@H](Cc1ccc(O)cc1)NC(=O)[C@H](CCCCN)NC(=O)[C@H](CO)NC(=O)[C@@H](NC(=O)[C@H](CC(=O)O)NC(=O)[C@H](CO)NC(=O)[C@@H](NC(=O)[C@H](Cc1ccccc1)NC(=O)[C@@H](NC(=O)CNC(=O)[C@H](CCC(N)=O)NC(=O)[C@H](CO)NC(=O)[C@@H](N)Cc1c[nH]cn1)[C@@H](C)O)[C@@H](C)O)C(C)C)[C@@H](C)O)C(C)C)C(=O)N[C@@H](CC(C)C)C(=O)N[C@@H](CO)C(=O)N[C@H](C(N)=O)[C@@H](C)O` [Example 61, N^ε24-[(4S)-4-carboxy-4-[[2-[2-[2-[[2-[2-[2-[[(4S)-4-carboxy-4-[[(4S)-4-carboxy-4-(17-carboxyheptadecanoylamino)butanoyl]amino]butanoyl]amino]ethoxy]ethoxy]acetyl]amino]ethoxy]ethoxy]acetyl]amino]butanoyl]-[Val10,Thr16,Glu21,Lys24,Leu27,Ser28]-Glucagon amide] (H-HSQGTFTSDVSKYLDTRRAQEFVK([γGlu-AEEA-AEEA-γGlu-γGlu-C18 diacid])WLLST-NH2) yielded a half-maximal effective concentration (EC50) on glucagon receptor of 156 pM. Moreover, the “Chemical stability [Purity loss/14 days 37 C.]” value in data set [1] turned out to be 6.2%.

`CC[C@H](C)[C@H](NC(=O)[C@H](CC(=O)O)NC(=O)[C@H](CC(C)C)NC(=O)[C@H](Cc1ccc(O)cc1)NC(=O)[C@H](CCCCN)NC(=O)[C@H](CO)NC(=O)[C@H](Cc1ccc(O)cc1)NC(=O)[C@H](CC(=O)O)NC(=O)[C@H](CO)NC(=O)[C@@H](NC(=O)[C@H](Cc1ccccc1)NC(=O)[C@@H](NC(=O)CNC(=O)[C@H](CCC(N)=O)NC(=O)[C@H](CO)NC(=O)[C@@H](N)Cc1c[nH]cn1)[C@@H](C)O)[C@@H](C)O)C(=O)N[C@@H](CCCNC(=N)N)C(=O)N[C@@H](CCCNC(=N)N)C(=O)N[C@@H](C)C(=O)N[C@@H](CCC(N)=O)C(=O)N[C@@H](CC(=O)O)C(=O)N[C@@H](Cc1ccccc1)C(=O)N[C@H](C(=O)N[C@@H](CCCCNC(=O)CC[C@H](NC(=O)CC[C@H](NC(=O)CC[C@H](NC(=O)CC[C@H](NC(=O)CCCCCCCCCCCCCCCCC(=O)O)C(=O)O)C(=O)O)C(=O)O)C(=O)O)C(=O)N[C@@H](Cc1c[nH]c2ccccc12)C(=O)N[C@@H](CC(C)C)C(=O)N[C@@H](CC(C)C)C(=O)N[C@@H](CO)C(=O)N[C@H](C(=O)O)[C@@H](C)O)C(C)C` [Example 79, N^ε24-[(4S)-4-carboxy-4-[[(4S)-4-carboxy-4-[[(4S)-4-carboxy-4-[[(4S)-4-carboxy-4-(17-carboxyheptadecanoylamino)butanoyl]amino]butanoyl]amino]butanoyl]amino]butanoyl]-[Ile16,Lys24,Leu27,Ser28]-Glucagon] displayed an EC50 on glucagon receptor of 189 pM. In data set [1], the “Chemical stability [Purity loss/14 days 37 C.]” value was found to be 3.8%.

`CC(C)C[C@H](NC(=O)[C@H](Cc1ccc(O)cc1)NC(=O)[C@H](CCCCN)NC(=O)[C@H](CO)NC(=O)[C@H](Cc1ccc(O)cc1)NC(=O)[C@H](CC(=O)O)NC(=O)[C@H](CO)NC(=O)[C@@H](NC(=O)[C@H](Cc1ccccc1)NC(=O)[C@@H](NC(=O)CNC(=O)[C@H](CCC(N)=O)NC(=O)[C@H](CO)NC(=O)[C@@H](N)Cc1c[nH]cn1)[C@@H](C)O)[C@@H](C)O)C(=O)N[C@@H](CCC(=O)O)C(=O)N[C@@H](CO)C(=O)N[C@@H](CCCNC(=N)N)C(=O)N[C@@H](CCCNC(=N)N)C(=O)N[C@@H](C)C(=O)N[C@@H](CCC(N)=O)C(=O)N[C@@H](CC(=O)O)C(=O)N[C@@H](Cc1ccccc1)C(=O)N[C@H](C(=O)N[C@@H](CCCCNC(=O)CC[C@H](NC(=O)CC[C@H](NC(=O)COCCOCCNC(=O)COCCOCCNC(=O)CC[C@H](NC(=O)CCCCCCCCCCCCCCC(=O)O)C(=O)O)C(=O)O)C(=O)O)C(=O)N[C@@H](Cc1c[nH]c2ccccc12)C(=O)N[C@@H](CC(C)C)C(=O)N[C@@H](CC(C)C)C(=O)N[C@@H](CO)C(=O)N[C@H](C(=O)O)[C@@H](C)O)C(C)C` [Example 69, N^ε24-[(4S)-4-carboxy-4-[[(4S)-4-carboxy-4-[[2-[2-[2-[[2-[2-[2-[[(4S)-4-carboxy-4-(15-carboxypentadecanoylamino)butanoyl]amino]ethoxy]ethoxy]acetyl]amino]ethoxy]ethoxy]acetyl]amino]butanoyl]amino]butanoyl]-[Glu15,Lys24,Leu27,Ser28]-Glucagon]: the midpoint of the response on glucagon receptor, the EC50, lay at 71 pM. Further, the “Chemical stability [Purity loss/14 days 37 C.]” value in data set [1] came to 8.2%.

Usually EC50 stands for the concentration that produces a half-maximal response. The low end stands for an effect from little substance, the high end for a need for much substance.
